This is an account of results in ChEMBL document CHEMBL1134209, “Syntheses and evaluation of pyrido[2,3-dlpyrimidine-2,4-diones as PDE 4 inhibitors” (Bioorg Med Chem Lett, 2001).

The first assay deals with Phosphodiesterase 4 (Rattus norvegicus) (UniProt P14270+P14646+P14644+P54748). In words: In vitro inhibitory activity against phosphodiesterase 4 from rat liver at concentration of 3 uM.
As for `Cn1c(=O)n(Cc2ccccc2)c(=O)c2cc(-c3cccc(C(F)(F)F)c3)cnc21`, the Inhibition worked out at 37.6%.
Same read-out and setting: for `Cn1c(=O)n(Cc2ccccc2)c(=O)c2cc(-c3ccc(Cl)cc3)cnc21` the value was 47.8%; for `Cn1c(=O)n(Cc2ccccc2)c(=O)c2cc(-c3ccccc3C(F)(F)F)cnc21`, 53.7%; for `CCCOCc1cnc2c(c1)c(=O)n(Cc1ccccc1)c(=O)n2C`, 46.7%.
The compound `CCOc1ccc(-c2ccnc3c2c(=O)n(Cc2ccccc2)c(=O)n3C)cc1` came in with an Inhibition of 35.1%.
On the same count and under the same terms, for `CCOC(=O)c1cnc2c(c1)c(=O)n(Cc1ccccc1)c(=O)n2C` the value was 43%.
Same read-out and setting: for `Cn1c(=O)n(Cc2ccccc2)c(=O)c2cc(-c3ccccc3F)cnc21` the value was 46.4%; for `Cn1c(=O)n(Cc2ccccc2)c(=O)c2c(Cc3ccccc3)ccnc21`, 57.1%.
In turn, `Cn1c(=O)n(Cc2ccccc2)c(=O)c2c(-c3ccccc3F)ccnc21` came in with an Inhibition of 69.7%.
Turning to `Cn1c(=O)n(Cc2ccccc2)c(=O)c2cc(COCc3ccccc3)cnc21`, the Inhibition is 49.8%.
Same read-out and setting: for `Cn1c(=O)n(Cc2ccccc2)c(=O)c2cc(-c3cccc([N+](=O)[O-])c3)cnc21` the value was 23.5%.
The same measure, in the same setting: the value for `Cn1c(=O)n(Cc2ccccc2)c(=O)c2cc(COc3ccccc3)cnc21` was 45.1%; that for `Cn1c(=O)n(Cc2ccccc2)c(=O)c2cc(-c3ccccc3)cnc21` was 31.3%; that for `Cn1c(=O)n(Cc2ccccc2)c(=O)c2cc(Cc3ccccc3)cnc21` was 68.2%.
Still for that read-out and setting: the value for `Cn1c(=O)n(Cc2ccccc2)c(=O)c2cc(-c3ccc(F)cc3)cnc21` was 44%.

For the next assay, the target named is Phosphodiesterase 4 (Rattus norvegicus, UniProt P14270+P14646+P14644+P54748). In words: Inhibition of phosphodiesterase 4 from rat liver at 0.3 uM (not determined).
`Cn1c(=O)n(Cc2ccccc2)c(=O)c2cc(-c3ccccc3)cnc21`: the half-maximal inhibitory concentration (IC50) was above 10 µM.
